# Source: patent publication US20240158359A1, “HYDROLYSIS-RESISTANT ESTERS FOR DRUG AND IMAGING AGENT DELIVERY” (The Board of Trustees of the University of lllinois, priority 2022, published 2024)
# How the values were obtained:
# [1] = 5 μM, 50 equiv analyte, 37° C., 30 min
# Description: For instance, transition metals like Cu(II) can facilitate ester hydrolysis via Lewis acid-mediated ester activation. Additionally, various reactive oxygen and nitrogen that can interact with the ester bond were also tested. Lastly, we also examined reactive sulfur species, which are known to reduce aryl nitro groups.
# Analyte Selectivity Assay for BL660-NTR. […] Light was collected within 15 min after mixing, and the signal enhancement was determined relative to control wells not treated with analyte. The total volume of each well was 100 μL [PBS (pH 7.4) with 0.5% DMSO]. Metal ion solutions were prepared by dissolving in MilliQ H2O before use. Superoxide anion was added as a solution of potassium superoxide in DMSO. Hydroxide radical was generated according to the previously reported literature. Similarly, peroxynitrite was prepared according to the reported literature. NO was generated in situ from a solution of DEA-NONOate in degassed PBS buffer. Glutathione reduced form was maintained at the final concentration of 5 mM in the reaction mixture. H2S was generated just before use according to the reported literature. NTR was used one unit per well. All other analytes were prepared by dilution or dissolution from commercially available sources.
# A549 cells [2] = test: Detection of NTR activity in A549 lung cancer cells cultured in hypoxia or normoxia, lysate BL imaging; format: cell-based
# Description: Next, we performed a cell imaging study to measure hypoxia within a living system. Specifically, A549 cells (not expressing Luc) were cultured in an atmosphere consisting of 1% or 20% oxygen for 2 days to mimic hypoxic conditions (1%) or normoxic (20%), respectively. Because aryl nitro reduction mediated by mammalian NTRs can be inhibited by molecular oxygen, we expect there to be greater probe activation under oxygen-deficient conditions. After incubating with BL660-NTR for 60 minutes, the cells were washed with fresh PBS, detached, pelleted, and lysed via sonication. The lysates were then transferred to 24-well plates, treated with luciferase and imaged immediately using the IVIS imaging system. […] This represents a significant 4.5-fold difference in BL intensity.
# A549 cells were seeded in T75 culture flasks and incubated in 1% or 20% oxygen atmosphere for 48 hours. A solution of BL660-NTR in DMSO (2 mM, 50 μL) was quickly added into each flask such that the final concentration of the probe is 10 μM and 0.5% DMSO. The cells were incubated with the probe for 60 minutes (under the respective culture conditions), washed with fresh PBS, and detached from the culture flasks. The cells were then transferred to a 15 mL centrifuge tube and pelleted at 1000 rpm for 5 min at room temp. The cells (4.25×10^6 cells/mL) were then resuspended in PBS along with 10% protease inhibitor solution (1 protease inhibitor mini tablet per 10 mL PBS, Pierce, Thermo Fisher Scientific) and sonicated on ice for 2.5 minutes (pulse 01, 01, 40%). The cell debris was removed via centrifugation at 4° C. The cell lysates were further diluted 2.5-fold by PBS and 475 μL were transferred into 24-well plates (n=4 for each condition), treated with luciferase (25 μL, 0.25 mg/mL), and imaged immediately using the IVIS imaging system. Bioluminescence light was collected in open mode (no filters were applied). ROIs were drawn around each well. The signal intensity was quantified using the Living Image Analysis Software.
# NTR = NTR (Escherichia coli, UniProt P38489)
# Description: Dose-dependence Activation of BL660-NTR (FIG. 4a) by NTR: The response of BL660-NTR (5 μM) against different concentrations of NTR was measured in a 96-well culture plate and was monitored using the IVIS imaging system. BL660-NTR was incubated with either 0.01 U or 0.1 U NTR at 37° C. for 15 min before the wells were treated with ATP-MgSO4 and luciferase to initiation bioluminescence production. Light was collected immediately after mixing, and the signal enhancement was determined relative to control wells not treated with enzyme. The total volume of each well was 100 μL (PBS (pH 7.4) with 0.5% DMSO). All data is reported as the mean±standard deviation (n=5).
# A549 cells [3] = test: MTT cytotoxicity assay of BL660-NTR; format: cell-based; conditions: 0 to 20 μM, up to 3 hours
# Description: Prior to testing BL660-NTR in vivo, we assessed potential cytotoxicity by treating A549 cells with BL660-NTR across a concentration range of 0 to 20 μM for up to 3 hours.
# MTT Cytotoxicity Assay. 24-well plates were seeded with 180,000 cells per well (500 μL of 360,000 cells/mL) and incubated at 37° C. with 5% CO2 for 24 h (˜70% confluent). Media was removed and fresh RPMI 1640 media with 10% FBS containing 0, 5, 10 or 20 μM BL660-NTR (1% DMSO final v/v) was added. The media was removed after 1 and 3 h and replaced with 500 μL of a 20:1 mixture of FBS-free RPMI 1640 and (3-(4,5-dimethylthiazol-2-yl)-2,5-diphenyl-tetrazolium bromide (MTT, 5 mg/mL stock in PBS). The cells were incubated for 2 h under the same conditions and then the medium was removed and replaced with DMSO (500 μL/well). The absorbance of each well was recorded after a 1:5 dilution in DMSO at 555 nm on a microplate reader. Viability was calculated by the absorbance relative to the vehicle control. Values are reported as the mean±standard deviation (n=3).
# A549-Luc2 tumors = test: BL imaging of tumor hypoxia in a lung cancer model; format: in vivo, NU/J mice
# Description: NU/J mice (male, ˜5-weeks old) were inoculated with A549-Luc2 lung cancer cells (5×10^6) in both flanks. Testing of BL660-NTR commenced after tumors had grown to a volume of ˜300 mm^3 (˜4 weeks). First, we performed imaging using BL660-NTR, which was administered systemically via retroorbital injection (ROI) (FIG. 5a (upper horizontal row of points) and FIG. 14). ROIs were drawn around each tumor and the luminescent count was summed for each animal. […] The BL intensity appears to decrease slightly after 15 mins and levels off until the end of the experiment (75 mins) (FIG. 5c).
# Next, to distinguish between NTR activation and off-target ester hydrolysis, we employed Compound (4) as a control reagent, which only differs in that the nitro trigger is absent (FIG. 1a). After approximately 20 hours, the same animals were treated with Compound (4) and imaged (FIG. 5b and FIG. 15). This delay was to ensure the probe had fully cleared from the first experiment. […] The total luminescent count after 15 mins for Compound 4 was only 4.0±0.7×10^3; whereas the corresponding readout was 16.6±2.5×10^3 for BL660-NTR. This represents a […] difference, indicating successful detection of tumor hypoxia (FIG. 5d).
# NU/J mice bearing A549-Luc2 tumors were anesthetized using isoflurane (1-3% for maintenance; up to 5% for induction) in oxygen from a precision vaporizer. After testing to ensure animals are fully under anesthesia, an initial background scan is recorded. BL660-NTR or compound 4 formulated in 3:7 v/v DMSO:PBS. The solution was filtered through a […] sterile filter immediately prior to use. The typical injection volume is ˜100 μM at a dose of 2.2 μmol/kg. The solution was then administered via retroorbital injection. Images were captured using the IVIS® imaging system at 5, 15, 30, 45, 60, and 75 minutes after injection. Bioluminescence light was collected in open mode (no filters were applied). Regions of interest (“ROIs”) were drawn around each tumor and summed for each animal. The signal intensity was quantified using the Living Image Analysis Software and is represented in FIGS. 5c and 5d.
# Generation of a Subcutaneous Lung Cancer Model: A549 cells were treated with vehicle (media only) or 50 μM DETA NONOate in media for 10 days. Cells were washed with PBS, resuspended in serum-free media (Hams F-12K), and mixed 1:1 with Geltrex (v/v) (to a final concentration of 5×10^7 cells/mL). Tumors were generated by subcutaneously injecting 100 μL of these cell solutions into the flanks of 4-week-old Nu/J mice (The Jackson Laboratory stock #: 002019).
# BL660-NTR was dissolved in DMSO and diluted with PBS (3:7 v/v DMSO:PBS). The solution was filtered through a […] sterile filter immediately prior to use. The typical injection volume is ˜100 μM at a dose of 2.2 μmol/kg.
# Compound 4 was dissolved in DMSO and diluted with PBS (3:7 v/v DMSO:PBS). The solution was filtered through a […] sterile filter immediately prior to use. The typical injection volume is ˜100 μM at a dose of 2.2 μmol/kg.
# Chain of NTR (P38489 whole entry): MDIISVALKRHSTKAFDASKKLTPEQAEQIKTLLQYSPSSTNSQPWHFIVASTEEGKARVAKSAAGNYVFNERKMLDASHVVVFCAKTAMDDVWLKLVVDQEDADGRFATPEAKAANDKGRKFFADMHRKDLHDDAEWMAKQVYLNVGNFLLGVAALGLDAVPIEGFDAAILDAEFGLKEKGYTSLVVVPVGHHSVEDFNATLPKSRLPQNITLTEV
structure (smiles),measurement,setting,value
CCN(CC)c1ccc(C=CC=CC2=NC(C(=O)OC(c3ccc([N+](=O)[O-])cc3)C(C)C)CS2)cc1 (stereo not shown) [BL660-NTR],activation by analytes compared to the NTR positive control,[1],≤ 10%
same,"difference in BL intensity, hypoxic versus normoxic",A549 cells [2]; 1% versus 20% oxygen,4.5 fold
same,"total luminescent counts, hypoxic lysates","A549 cells [2]; A549 cells in 1% oxygen for 2 days, 10 μM probe 60 minutes",5.0±0.1×10^5 total luminescent counts
same,"total luminescent counts, normoxic lysates","A549 cells [2]; A549 cells in 20% oxygen for 2 days, 10 μM probe 60 minutes",1.1±0.03×10^5 total luminescent counts
same,"total luminescence signal, NTR absent",NTR; BL660-NTR 5 μM and luciferase without NTR,significantly attenuated
same,"total luminescence count, probe, NTR and luciferase all present","NTR; BL660-NTR 5 μM, NTR 0.1 units, luciferase 0.0125 mg/mL",notable increase in the total luminescence count
same,cell viability,A549 cells [3],No loss of cell viability
same,BL signal in the tumors (in words),"A549-Luc2 tumors; 5 to 75 min after retroorbital injection, 2.2 μmol/kg",strong BL signals were apparent in all tumors
same,"difference in total luminescent count, BL660-NTR versus Compound 4",A549-Luc2 tumors; 15 mins after retroorbital injection,5.2 fold
same,total luminescent count in tumors after 15 mins,"A549-Luc2 tumors; 15 mins after retroorbital injection, 2.2 μmol/kg, NU/J mice with A549-Luc2 tumors",16.6±2.5×10^3 total luminescent count
